Data reported in PubChem BioAssay AID256 (DTP/NCI, 2004).
Values joined by “and” are separate entries in the source; they are usually repeats but may differ in a detail not shown here. Identical values can stand only once. Toxic doses and inconclusive results are not listed. The calls were made as follows: active = survival T/C of 150% or more; inactive = T/C below 125% in these data.

Test system: CD2F1 mice, L1210 leukemia ip, survival T/C
Assay: NCI In Vivo Anticancer Drug Screen. Data for tumor model L1210 Leukemia (intraperitoneal) in CD2F1 (CDF1) mice
Details: higher = longer survival
In short: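 Read-out first: treated-group measurement over vehicle-control measurement, expressed as a ratio. Animals bore a transplanted tumor line and were dosed with compound or vehicle.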

[1] = endpoint: mean survival time, dose: 50.0 mg/kg/injection, schedule: Q01DX001 (ip), vehicle: saline with Tween-80
[2] = endpoint: mean survival time, dose: 100.0 mg/kg/injection, schedule: Q01DX001 (ip), vehicle: saline with Tween-80
[3] = endpoint: mean survival time, dose: 200.0 mg/kg/injection, schedule: Q01DX001 (ip), vehicle: saline with Tween-80
[4] = endpoint: mean survival time, dose: 25.0 mg/kg/injection, schedule: Q04DX003 (ip), vehicle: saline with Tween-80
[5] = endpoint: mean survival time, dose: 50.0 mg/kg/injection, schedule: Q04DX003 (ip), vehicle: saline with Tween-80
[6] = endpoint: mean survival time, dose: 100.0 mg/kg/injection, schedule: Q04DX003 (ip), vehicle: saline with Tween-80
[7] = endpoint: mean survival time, dose: 25.0 mg/kg/injection, schedule: Q01DX009 (ip), vehicle: saline with Tween-80
[8] = endpoint: mean survival time, dose: 50.0 mg/kg/injection, schedule: Q01DX009 (ip), vehicle: saline with Tween-80
[9] = endpoint: mean survival time, dose: 100.0 mg/kg/injection, schedule: Q01DX009 (ip), vehicle: saline with Tween-80
[10] = endpoint: mean survival time, dose: 100.0 mg/kg/injection, schedule: Q04DX002 (ip), vehicle: saline with Tween-80
[11] = endpoint: mean survival time, dose: 200.0 mg/kg/injection, schedule: Q01DX009 (ip), vehicle: saline with Tween-80
[12] = endpoint: mean survival time, dose: 200.0 mg/kg/injection, schedule: Q04DX002 (ip), vehicle: saline with Tween-80
[13] = endpoint: mean survival time, dose: 200.0 mg/kg/injection, schedule: Q04DX003 (ip), vehicle: saline with Tween-80
[14] = endpoint: mean survival time, dose: 400.0 mg/kg/injection, schedule: Q01DX001 (ip), vehicle: saline with Tween-80
[15] = endpoint: mean survival time, dose: 400.0 mg/kg/injection, schedule: Q04DX002 (ip), vehicle: saline with Tween-80
[16] = endpoint: mean survival time, dose: 400.0 mg/kg/injection, schedule: Q01DX009 (ip), vehicle: saline with Tween-80
[17] = endpoint: mean survival time, dose: 400.0 mg/kg/injection, schedule: Q04DX003 (ip), vehicle: saline with Tween-80
[18] = endpoint: mean survival time, dose: 50.0 mg/kg/injection, schedule: Q01DX009 (ip), vehicle: Klucel (hydroxypropylcellulose) (HPC)
[19] = endpoint: mean survival time, dose: 100.0 mg/kg/injection, schedule: Q01DX009 (ip), vehicle: Klucel (hydroxypropylcellulose) (HPC)
[20] = endpoint: mean survival time, dose: 25.0 mg/kg/injection, schedule: Q04DX003 (ip), vehicle: saline

Measured: T/C

CC(C)CN(CC(C)C)C(=S)[S-].CC(C)CN(CC(C)C)C(=S)[S-].[Zn]
inactive: endpoint: mean survival time, dose: 75.0 mg/kg/injection, schedule: Q04DX003 (ip), vehicle: saline 91 % of control | endpoint: mean survival time, dose: 150.0 mg/kg/injection, schedule: Q04DX003 (ip), vehicle: saline 89 % of control | endpoint: mean survival time, dose: 300.0 mg/kg/injection, schedule: Q04DX003 (ip), vehicle: saline 95 % of control

CC(=O)C1CCC2CC3CCCCC3N(C(C)=O)C2C1 (configuration not stated)
inactive: [1] 107 % of control | [2] 105 % of control | [3] 100 % of control

O/N=C(\CN1CCOCC1)c1ccc(Cl)cc1
inactive: endpoint: mean survival time, dose: 50.0 mg/kg/injection, schedule: Q01DX009 (ip), vehicle: saline 107 % of control | endpoint: mean survival time, dose: 100.0 mg/kg/injection, schedule: Q01DX009 (ip), vehicle: saline 96 % of control | endpoint: mean survival time, dose: 200.0 mg/kg/injection, schedule: Q01DX009 (ip), vehicle: saline 103 % of control

CCOC(=O)CN1C(=O)C(Cl)=C(Cl)C1=O
inactive: endpoint: mean survival time, dose: 12.5 mg/kg/injection, schedule: Q04DX003 (ip), vehicle: saline with Tween-80 98 % of control

CC(=O)NCC(=O)[O][Sn]([c]1ccc(C)cc1)([c]1ccc(C)cc1)[c]1ccc(C)cc1
inactive: endpoint: mean survival time, dose: 0.19 mg/kg/injection, schedule: Q01DX009 (ip), vehicle: saline 97 % of control | endpoint: mean survival time, dose: 0.39 mg/kg/injection, schedule: Q01DX009 (ip), vehicle: saline 105 % of control | endpoint: mean survival time, dose: 0.78 mg/kg/injection, schedule: Q01DX009 (ip), vehicle: saline 103 % of control and 111 % of control | endpoint: mean survival time, dose: 1.56 mg/kg/injection, schedule: Q01DX009 (ip), vehicle: saline 100 % of control | endpoint: mean survival time, dose: 3.12 mg/kg/injection, schedule: Q01DX009 (ip), vehicle: saline 91 % of control

CC(C)(C)NC/C(=C\c1ccccc1)C(=O)c1ccccc1
inactive: [4] 109 % of control | [5] 100 % of control | [6] 117 % of control

O=C1CCCC2C3CC(CN12)C1CCCCN1C3 (configuration not stated)
inactive: [7] 103 % of control | [8] 101 % of control | [9] 100 % of control | [6] 97 % of control

CCOC(=O)c1ccc(NC(=O)NC(Cc2ccccc2)c2ccccc2)cc1 (configuration not stated)
inactive: [4] 111 % of control | [1] 96 % of control | [8] 87 % of control and 91 % of control | [5] 104 % of control | [2] 96 % of control | [9] 87 % of control | [10] 91 % of control | [6] 89 % of control and 106 % of control | [3] 94 % of control | [11] 87 % of control and 90 % of control | [12] 87 % of control and 88 % of control | [13] 101 % of control | [14] 94 % of control | [15] 86 % of control

Cc1ccccc1-[n+]1nc(-c2ccccc2)nn1-c1ccccc1
inactive: endpoint: mean survival time, dose: 1.25 mg/kg/injection, schedule: Q01DX009 (ip), vehicle: saline sonified 104 % of control | endpoint: mean survival time, dose: 5.0 mg/kg/injection, schedule: Q04DX003 (ip), vehicle: saline with Tween-80 98 % of control

CCCNC(=O)Oc1cccc(NC(=O)CC)c1
inactive: [9] 96 % of control | [16] 89 % of control

CC(C)COC(=O)c1ccc(NC(=O)Nc2ccccc2Cl)cc1
inactive: [9] 93 % of control | [6] 93 % of control | [11] 89 % of control | [17] 101 % of control

N#CC(C(=O)O)C1CCCCC1=O (configuration not stated)
inactive: endpoint: median survival time, dose: 50.0 mg/kg/injection, schedule: Q04DX002 (ip), vehicle: saline with Tween-80 100 % of control | endpoint: median survival time, dose: 100.0 mg/kg/injection, schedule: Q04DX002 (ip), vehicle: saline with Tween-80 100 % of control | endpoint: median survival time, dose: 200.0 mg/kg/injection, schedule: Q04DX002 (ip), vehicle: saline with Tween-80 100 % of control

Cc1ccc(S)cc1
inactive: [2] 98 % of control | endpoint: mean survival time, dose: 100.0 mg/kg/injection, schedule: Q04DX003 (ip), vehicle: saline sonified 100 % of control | [3] 90 % of control | endpoint: mean survival time, dose: 200.0 mg/kg/injection, schedule: Q04DX003 (ip), vehicle: saline sonified 95 % of control | [14] 90 % of control | endpoint: mean survival time, dose: 400.0 mg/kg/injection, schedule: Q04DX003 (ip), vehicle: saline sonified 95 % of control

c1cc2c3c(c1)nc(CCCc1nc4cccc5c4n1CCC5)n3CCC2
inactive: [7] 103 % of control | [8] 96 % of control | [9] 94 % of control

CC1OC(OC(=O)c2ccc([N+](=O)[O-])cc2)CC(NC(=O)C(F)(F)F)C1OC(=O)c1ccc([N+](=O)[O-])cc1 (configuration not stated)
inactive: endpoint: mean survival time, dose: 25.0 mg/kg/injection, schedule: Q01DX005 (ip), vehicle: Klucel (hydroxypropylcellulose) (HPC) 94 % of control | endpoint: mean survival time, dose: 50.0 mg/kg/injection, schedule: Q01DX005 (ip), vehicle: Klucel (hydroxypropylcellulose) (HPC) 89 % of control

CCCCCCCCCCCCCCBr
inactive: [8] 96 % of control | [9] 103 % of control | [11] 96 % of control

CCCCC(=O)O.[Pb]
inactive: endpoint: mean survival time, dose: 75.0 mg/kg/injection, schedule: Q01DX001 (ip), vehicle: steriod suspending solution 100 % of control | endpoint: mean survival time, dose: 150.0 mg/kg/injection, schedule: Q01DX001 (ip), vehicle: steriod suspending solution 104 % of control | endpoint: mean survival time, dose: 300.0 mg/kg/injection, schedule: Q01DX001 (ip), vehicle: steriod suspending solution 97 % of control

CC(Cl)CN(CC(C)Cl)c1ccc(N=Nc2ccccc2)cc1 (configuration not stated)
inactive: [18] 100 % of control | [19] 106 % of control | endpoint: mean survival time, dose: 200.0 mg/kg/injection, schedule: Q01DX009 (ip), vehicle: Klucel (hydroxypropylcellulose) (HPC) 90 % of control

CC(=O)COc1ccc(C)cc1
inactive: [6] 105 % of control | [13] 96 % of control | [17] 98 % of control

NC(CCc1ccc2c(c1)OCO2)C(=O)O (configuration not stated)
inactive: [2] 97 % of control | [3] 100 % of control | [14] 90 % of control

CCc1ncc(C(C)(O)c2ccc(C)cc2)n1Cc1ccccc1 (configuration not stated)
inactive: [9] 92 % of control | [11] 90 % of control | [16] 97 % of control

c1nc(N2CC2)c2cnn(C3CCCCO3)c2n1 (configuration not stated)
inactive: [20] 96 % of control | endpoint: mean survival time, dose: 50.0 mg/kg/injection, schedule: Q04DX003 (ip), vehicle: saline 103 % of control | endpoint: mean survival time, dose: 100.0 mg/kg/injection, schedule: Q04DX003 (ip), vehicle: saline 100 % of control

CC(C)(C#N)OC(=O)Nc1cccc(Cl)c1
inactive: [10] 93 % of control | [12] 90 % of control | [15] 86 % of control

O=C(N/N=C/c1ccc2c(c1)CCC2)c1ccncc1
inactive: [6] 98 % of control | [13] 96 % of control | [17] 98 % of control

NC(N)=N/N=C/c1ccncc1
inactive: endpoint: mean survival time, dose: 100.0 mg/kg/injection, schedule: Q04DX002 (ip), vehicle: saline 92 % of control

CC(C)(C)c1ccc(O)c(Sc2cc(C(C)(C)C)ccc2O)c1
inactive: endpoint: mean survival time, dose: 50.0 mg/kg/injection, schedule: Q01DX009 (ip), vehicle: other 96 % of control | endpoint: mean survival time, dose: 100.0 mg/kg/injection, schedule: Q01DX009 (ip), vehicle: other 98 % of control | [9] 98 % of control | endpoint: mean survival time, dose: 200.0 mg/kg/injection, schedule: Q01DX009 (ip), vehicle: other 101 % of control | [11] 103 % of control | [16] 94 % of control

NC(=S)N/N=C/c1ccc(-c2ccccc2)cc1
inactive: [6] 97 % of control

Nc1nc(OCc2ccccc2)ncc1C(=O)NC(CO)C(=O)O (configuration not stated)
inactive: endpoint: mean survival time, dose: 6.25 mg/kg/injection, schedule: Q01DX009 (ip), vehicle: saline with Tween-80 100 % of control | endpoint: mean survival time, dose: 12.5 mg/kg/injection, schedule: Q01DX009 (ip), vehicle: saline with Tween-80 98 % of control | [7] 102 % of control

CCCN(CCC)S(=O)(=O)c1ccc(NC(=O)OC(CC)c2ccco2)cc1 (configuration not stated)
inactive: endpoint: mean survival time, dose: 100.0 mg/kg/injection, schedule: Q01DX001 (ip), vehicle: saline 94 % of control | endpoint: mean survival time, dose: 200.0 mg/kg/injection, schedule: Q01DX001 (ip), vehicle: saline 95 % of control | endpoint: mean survival time, dose: 400.0 mg/kg/injection, schedule: Q01DX001 (ip), vehicle: saline 94 % of control

c1cc(OCC2CO2)ccc1OCC1CO1 (configuration not stated)
inactive: endpoint: mean survival time, dose: 25.0 mg/kg/injection, schedule: Q01DX009 (ip), vehicle: Klucel (hydroxypropylcellulose) (HPC) 110 % of control | [18] 107 % of control | [19] 113 % of control

C[n+]1c2ccccc2cc2ccccc21
inactive: endpoint: mean survival time, dose: 12.0 mg/kg/injection, schedule: Q04DX003 (ip), vehicle: saline 102 % of control | [20] 98 % of control

CCCC/C=C\C1CCCCC1C (configuration not stated)
inactive: [8] 87 % of control | [9] 96 % of control | [11] 104 % of control
